In article PMC6917776, “Discovery of a chemical probe for PRDM9” (Nature Communications, 2019):
Like-named read-outs stand apart in the source and are kept apart here.

Columns and labels:
[1] = biological target: T1, DNMT1 (Homo sapiens, UniProt P26358); test: Methyltransferase selectivity assay (SPA); format: biochemical
T1 construct: purchased Structural Genomics Consortium (SGC Toronto) in-house methyltransferase panel
Experimental: Selectivity against methyltransferases were determined as described previously. Details of the assays are described in the supplementary methods.
Methyltransferase selectivity assay1
The effect of chemical probes and negative controls on the methyltransferase activities of protein, DNA and RNA methyltransferases was tested by radiometric assays using 3H-SAM. For proteins such as MLL1 trimeric, MLL3 pentameric, EZH1 (PRC2) pentameric, and EZH2 (PRC2) trimeric complexes, as well as G9a, GLP, SUV39H1, SUV39H2, SUV420H1, SUV420H2, SETD2, SETD8, SETDB1, SETD7, PRMT1, PRMT3, PRMT4, PRMT5/ MEP50 complex, PRMT6, PRMT7, PRMT8, PRMT9, PRDM9, SMYD2, SMYD3, DNMT1, and BCDIN3D the incorporation of a tritium-labeled methyl group into biotinylated substrate was monitored using scintillation proximity assay (SPA). Briefly, a 10 µL reaction containing 3H-SAM and substrate at concentrations close to the apparent Km values for each enzyme (balanced conditions) was prepared. The reactions were quenched with 10 µL of 7.5 M guanidine hydrochloride; 180 µL of 20 mM Tris buffer (pH 8.0) were added, and the mixture was transferred to a 96-well FlashPlate and incubated for 1 h. The counts per minute (CPM) was measured on a TopCount plate reader. The CPM in the absence of compound or enzyme was defined as 100% activity and background (0%), respectively, for each dataset. For DNMT1, the double-stranded DNA substrate was prepared by annealing two complementary strands (biotinylated forward strand: B-[…] and reverse strand: […]

[2] = test system: MDA-MB-436; test: CelltiterGlo viability cell assay; format: cell-based; details: up to 30 μM; days 3 and 6; matched control line
Procedure, shortened: (§1)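 Dose range 0.01 μM to 30 μM, exposure 3 or 6 days. Read-out: CelltiterGlo, as a percentage of DMSO vehicle, averaged over three biological replicates with SEM.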

[3] = test system: HCC1143; test: CelltiterGlo viability cell assay; format: cell-based; details: up to 30 μM; days 3 and 6; matched control line
Procedure, shortened: as §1

[4] = test system: HCC1806; test: CelltiterGlo viability cell assay; format: cell-based; details: up to 30 μM; days 3 and 6; Prdm9 expressing line
Procedure, shortened: as §1

[5] = 10µM compound, Exp1, Exp2, 10 µM

T1 sequence (P26358 whole entry): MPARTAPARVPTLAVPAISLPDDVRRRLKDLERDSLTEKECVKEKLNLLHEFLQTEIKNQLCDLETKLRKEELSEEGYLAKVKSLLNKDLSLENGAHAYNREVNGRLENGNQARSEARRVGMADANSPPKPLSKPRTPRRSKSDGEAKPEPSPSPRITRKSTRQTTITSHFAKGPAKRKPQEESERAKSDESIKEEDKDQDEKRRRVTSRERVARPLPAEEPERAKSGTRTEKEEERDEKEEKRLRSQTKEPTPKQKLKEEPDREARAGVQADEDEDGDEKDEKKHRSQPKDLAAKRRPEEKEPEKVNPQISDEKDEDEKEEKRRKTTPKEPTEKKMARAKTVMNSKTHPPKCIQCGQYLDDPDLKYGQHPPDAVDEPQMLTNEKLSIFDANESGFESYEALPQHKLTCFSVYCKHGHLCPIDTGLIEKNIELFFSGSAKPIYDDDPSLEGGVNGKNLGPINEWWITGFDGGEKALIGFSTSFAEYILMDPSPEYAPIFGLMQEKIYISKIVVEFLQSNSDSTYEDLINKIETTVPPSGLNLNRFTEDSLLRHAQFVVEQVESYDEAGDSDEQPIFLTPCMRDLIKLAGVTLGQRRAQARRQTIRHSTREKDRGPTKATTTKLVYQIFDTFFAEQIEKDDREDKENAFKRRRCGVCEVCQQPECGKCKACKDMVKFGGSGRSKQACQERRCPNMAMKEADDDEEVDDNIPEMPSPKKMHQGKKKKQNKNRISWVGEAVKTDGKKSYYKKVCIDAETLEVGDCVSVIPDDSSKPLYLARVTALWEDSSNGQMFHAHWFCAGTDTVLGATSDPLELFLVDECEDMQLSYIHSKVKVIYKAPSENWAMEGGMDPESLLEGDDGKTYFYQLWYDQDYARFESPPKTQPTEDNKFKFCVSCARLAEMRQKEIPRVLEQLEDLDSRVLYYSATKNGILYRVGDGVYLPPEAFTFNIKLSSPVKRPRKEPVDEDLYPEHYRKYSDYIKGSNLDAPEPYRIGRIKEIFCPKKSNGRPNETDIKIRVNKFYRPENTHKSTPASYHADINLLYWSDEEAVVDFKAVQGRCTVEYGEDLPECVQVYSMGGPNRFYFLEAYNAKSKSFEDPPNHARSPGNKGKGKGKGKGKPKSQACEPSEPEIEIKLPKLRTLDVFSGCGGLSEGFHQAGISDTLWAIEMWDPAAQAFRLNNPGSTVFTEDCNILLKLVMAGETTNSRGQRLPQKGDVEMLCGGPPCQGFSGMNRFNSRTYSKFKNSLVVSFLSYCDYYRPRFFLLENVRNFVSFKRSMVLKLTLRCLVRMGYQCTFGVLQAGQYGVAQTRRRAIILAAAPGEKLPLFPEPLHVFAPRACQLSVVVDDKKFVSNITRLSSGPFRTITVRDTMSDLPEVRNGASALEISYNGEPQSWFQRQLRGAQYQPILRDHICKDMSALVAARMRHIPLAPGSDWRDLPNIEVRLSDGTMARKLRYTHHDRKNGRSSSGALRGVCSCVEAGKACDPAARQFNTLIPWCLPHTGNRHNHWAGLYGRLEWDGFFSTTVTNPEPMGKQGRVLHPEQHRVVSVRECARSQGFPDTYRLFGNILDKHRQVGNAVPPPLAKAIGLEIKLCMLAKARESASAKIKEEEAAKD

COc1cc(OC)cc(-c2noc(N3CCN(C)C4(CCN(c5ccccc5)CC4)C3)n2)c1 [MRK-740 -NC]
activity at 1 µM ([1]; 1µM compound, Exp1, Exp2): 105%
activity at 10 µM ([1]; 10µM compound, Exp1, Exp2): 102%
Activity % [1, 5]: 98%

COc1cc(OC)cc(-c2noc(N3CCN(C)C4(CCN(c5ccnc(C)c5)CC4)C3)n2)c1 [MRK-740]
Activity % ([1]; 1µM compound, Exp1, Exp2, 1 µM): 95%
activity at 1 µM ([1]; 1µM compound, Exp1, Exp2, read-out: Activity %): 98%
Activity % [1, 5]: 101%
activity at 10 µM ([1]; 10µM compound, Exp1, Exp2, read-out: Activity %): 99%
Effect on proliferation (in words) [2]: did not have any significant effect
Effect on proliferation (in words) [3]: did not have any significant effect
Effect on proliferation (in words) [4]: did not have any significant effect
